Values quoted from earlier work as cited in patent US20250339484A1, “COMPOSITION FOR BODY FAT REDUCTION CONTAINING EXTRACTS OF TARAXACUM PLATYCARPUM AND LONICERAE JAPONICA AS ACTIVE INGREDIENTS” (BOINBIO-CONVERGENCE CO., LTD., priority 2022, published 2025).

Details: clinical trials, about 3 g per day, after 3 months

In the case of `CCCC/C=C/C=C/C=C\CCCCCCCC(=O)O` [CLA, conjugated linolenic acid], the “body weight reduction (average)” value is given as 2.5 kg.
